The values below come from ChEMBL document CHEMBL3627608, “Crystal structures of human RIP2 kinase catalytic domain complexed with ATP-competitive inhibitors: Foundations for understanding inhibitor selectivity” (Bioorg Med Chem, 2015).

In assay [1] the target is T1, Serine/threonine-protein kinase ULK1 (Homo sapiens) (UniProt O75385).
T1 sequence (whole entry): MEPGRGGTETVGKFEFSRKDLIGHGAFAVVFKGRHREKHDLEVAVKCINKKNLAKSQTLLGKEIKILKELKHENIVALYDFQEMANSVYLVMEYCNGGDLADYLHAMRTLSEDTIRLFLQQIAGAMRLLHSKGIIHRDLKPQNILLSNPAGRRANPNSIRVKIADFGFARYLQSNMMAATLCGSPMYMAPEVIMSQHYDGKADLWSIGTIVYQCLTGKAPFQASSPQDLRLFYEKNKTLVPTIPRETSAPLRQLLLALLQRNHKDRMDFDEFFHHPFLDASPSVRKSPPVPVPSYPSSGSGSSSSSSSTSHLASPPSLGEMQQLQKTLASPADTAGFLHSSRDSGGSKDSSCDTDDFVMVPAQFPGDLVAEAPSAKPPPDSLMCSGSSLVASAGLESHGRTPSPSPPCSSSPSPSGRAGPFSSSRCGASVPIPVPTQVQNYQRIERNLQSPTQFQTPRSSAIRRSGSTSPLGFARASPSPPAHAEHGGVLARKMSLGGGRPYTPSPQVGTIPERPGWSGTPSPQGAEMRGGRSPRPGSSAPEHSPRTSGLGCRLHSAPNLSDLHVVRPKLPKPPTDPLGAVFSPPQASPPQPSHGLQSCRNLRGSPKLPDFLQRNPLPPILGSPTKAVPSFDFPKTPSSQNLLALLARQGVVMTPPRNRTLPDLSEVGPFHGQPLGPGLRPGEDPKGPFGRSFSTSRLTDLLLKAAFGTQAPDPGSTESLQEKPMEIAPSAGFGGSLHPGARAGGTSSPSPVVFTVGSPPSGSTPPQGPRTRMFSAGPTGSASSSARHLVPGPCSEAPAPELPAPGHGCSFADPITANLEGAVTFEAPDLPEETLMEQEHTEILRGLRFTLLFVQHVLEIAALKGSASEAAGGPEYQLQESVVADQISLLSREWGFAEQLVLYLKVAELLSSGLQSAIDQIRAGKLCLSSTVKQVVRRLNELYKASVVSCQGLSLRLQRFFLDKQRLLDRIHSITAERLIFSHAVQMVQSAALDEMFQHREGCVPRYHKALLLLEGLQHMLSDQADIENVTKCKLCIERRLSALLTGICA
Put plainly: Inhibition of ULK1 (unknown origin) at 10 uM after 120 mins P33 radiolabeled kinase activity assay.

Assay [2] has as its target Mitogen-activated protein kinase kinase kinase 1 (Homo sapiens) (UniProt Q13233). Put plainly: Inhibition of MEKK1 (unknown origin) at 10 uM after 120 mins P33 radiolabeled kinase activity assay.
Assay [3] addresses T2, Serine/threonine-protein kinase Sgk3 (Homo sapiens) (UniProt Q96BR1).
T2 sequence (whole entry): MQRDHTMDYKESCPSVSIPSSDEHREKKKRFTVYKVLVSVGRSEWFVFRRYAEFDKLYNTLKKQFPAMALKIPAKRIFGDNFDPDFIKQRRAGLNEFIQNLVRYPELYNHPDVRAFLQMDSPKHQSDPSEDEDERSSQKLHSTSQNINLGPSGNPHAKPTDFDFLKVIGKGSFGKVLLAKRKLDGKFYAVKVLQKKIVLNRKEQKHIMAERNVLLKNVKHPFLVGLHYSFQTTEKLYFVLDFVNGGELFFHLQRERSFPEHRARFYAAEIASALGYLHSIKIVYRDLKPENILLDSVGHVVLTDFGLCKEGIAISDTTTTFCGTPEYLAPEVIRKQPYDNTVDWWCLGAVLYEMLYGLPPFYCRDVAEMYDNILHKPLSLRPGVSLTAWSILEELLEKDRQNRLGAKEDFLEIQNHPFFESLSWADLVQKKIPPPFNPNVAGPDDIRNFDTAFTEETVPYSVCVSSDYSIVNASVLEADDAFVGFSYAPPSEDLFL
Put plainly: Inhibition of SGK3 (unknown origin) at 10 uM after 120 mins P33 radiolabeled kinase activity assay.

For assay [4], the target named is T3, Serine/threonine-protein kinase Nek3 (Homo sapiens) (UniProt P51956).
T3 sequence (whole entry): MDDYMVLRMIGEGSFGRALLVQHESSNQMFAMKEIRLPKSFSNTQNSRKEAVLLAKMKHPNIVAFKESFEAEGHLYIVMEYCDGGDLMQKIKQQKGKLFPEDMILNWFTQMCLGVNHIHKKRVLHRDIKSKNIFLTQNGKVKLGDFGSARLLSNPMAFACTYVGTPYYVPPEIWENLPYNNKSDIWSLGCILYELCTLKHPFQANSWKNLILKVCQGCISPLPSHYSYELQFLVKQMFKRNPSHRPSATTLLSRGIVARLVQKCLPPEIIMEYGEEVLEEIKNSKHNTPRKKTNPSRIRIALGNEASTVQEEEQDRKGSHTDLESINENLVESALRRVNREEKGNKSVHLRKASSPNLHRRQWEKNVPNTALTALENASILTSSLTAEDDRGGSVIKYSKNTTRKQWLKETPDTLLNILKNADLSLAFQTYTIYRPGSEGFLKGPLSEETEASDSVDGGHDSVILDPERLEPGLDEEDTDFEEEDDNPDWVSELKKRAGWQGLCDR
Put plainly: Inhibition of NEK3 (unknown origin) at 10 uM after 120 mins P33 radiolabeled kinase activity assay.

Assay [5] has as its target T4, Testis-specific serine/threonine-protein kinase 1 (Homo sapiens) (UniProt Q9BXA7).
T4 sequence (whole entry): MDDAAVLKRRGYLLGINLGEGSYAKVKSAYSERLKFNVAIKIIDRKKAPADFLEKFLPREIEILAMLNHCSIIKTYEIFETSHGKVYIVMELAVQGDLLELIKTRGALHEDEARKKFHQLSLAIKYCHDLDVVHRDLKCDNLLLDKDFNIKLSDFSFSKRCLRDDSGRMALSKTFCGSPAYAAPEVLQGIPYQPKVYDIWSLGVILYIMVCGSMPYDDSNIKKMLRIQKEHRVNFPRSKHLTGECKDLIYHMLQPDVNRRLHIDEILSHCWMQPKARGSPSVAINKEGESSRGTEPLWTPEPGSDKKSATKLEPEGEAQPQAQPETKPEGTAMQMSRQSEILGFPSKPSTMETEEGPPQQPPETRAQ
Put plainly: Inhibition of STK22D (unknown origin) at 10 uM after 120 mins P33 radiolabeled kinase activity assay.

Assay [6] has as its target Phosphorylase b kinase gamma catalytic chain, skeletal muscle/heart isoform (Homo sapiens) (UniProt Q16816). Put plainly: Inhibition of PHKgamma1 (unknown origin) at 10 uM after 120 mins P33 radiolabeled kinase activity assay.
Assay [7] deals with Homeodomain-interacting protein kinase 2 (Homo sapiens) (UniProt Q9H2X6). Put plainly: Inhibition of HIPK2 (unknown origin) at 10 uM after 120 mins P33 radiolabeled kinase activity assay.
Assay [8] addresses Mitogen-activated protein kinase 3 (Homo sapiens) (UniProt P27361). Put plainly: Inhibition of ERK1 (unknown origin) at 10 uM after 120 mins P33 radiolabeled kinase activity assay.

Molecules are shown by their SMILES.

Chain of Mitogen-activated protein kinase 3 (Homo sapiens) (P27361 whole entry): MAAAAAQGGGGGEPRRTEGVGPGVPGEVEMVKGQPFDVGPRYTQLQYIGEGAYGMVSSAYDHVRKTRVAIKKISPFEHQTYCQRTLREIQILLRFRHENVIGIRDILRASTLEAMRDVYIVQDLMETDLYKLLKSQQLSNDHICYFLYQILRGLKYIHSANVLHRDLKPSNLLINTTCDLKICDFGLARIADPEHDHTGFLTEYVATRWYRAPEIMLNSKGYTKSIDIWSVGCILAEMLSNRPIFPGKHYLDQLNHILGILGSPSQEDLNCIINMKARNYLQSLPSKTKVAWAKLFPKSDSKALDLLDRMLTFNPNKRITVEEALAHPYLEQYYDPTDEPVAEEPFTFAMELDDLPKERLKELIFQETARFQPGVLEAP
Chain of Phosphorylase b kinase gamma catalytic chain, skeletal muscle/heart isoform (Homo sapiens) (Q16816 whole entry, looked up, canonical isoform): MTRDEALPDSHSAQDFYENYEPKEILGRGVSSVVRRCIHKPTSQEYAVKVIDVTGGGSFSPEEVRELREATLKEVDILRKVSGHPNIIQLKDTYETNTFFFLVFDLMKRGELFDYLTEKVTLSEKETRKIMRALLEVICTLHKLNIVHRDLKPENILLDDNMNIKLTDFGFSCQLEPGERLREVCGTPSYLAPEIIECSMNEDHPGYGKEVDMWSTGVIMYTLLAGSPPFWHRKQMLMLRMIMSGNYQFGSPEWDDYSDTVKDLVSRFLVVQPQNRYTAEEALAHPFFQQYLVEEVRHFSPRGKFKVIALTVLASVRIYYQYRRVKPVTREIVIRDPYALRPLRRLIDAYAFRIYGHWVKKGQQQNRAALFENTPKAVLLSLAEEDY
Chain of Mitogen-activated protein kinase kinase kinase 1 (Homo sapiens) (Q13233 whole entry): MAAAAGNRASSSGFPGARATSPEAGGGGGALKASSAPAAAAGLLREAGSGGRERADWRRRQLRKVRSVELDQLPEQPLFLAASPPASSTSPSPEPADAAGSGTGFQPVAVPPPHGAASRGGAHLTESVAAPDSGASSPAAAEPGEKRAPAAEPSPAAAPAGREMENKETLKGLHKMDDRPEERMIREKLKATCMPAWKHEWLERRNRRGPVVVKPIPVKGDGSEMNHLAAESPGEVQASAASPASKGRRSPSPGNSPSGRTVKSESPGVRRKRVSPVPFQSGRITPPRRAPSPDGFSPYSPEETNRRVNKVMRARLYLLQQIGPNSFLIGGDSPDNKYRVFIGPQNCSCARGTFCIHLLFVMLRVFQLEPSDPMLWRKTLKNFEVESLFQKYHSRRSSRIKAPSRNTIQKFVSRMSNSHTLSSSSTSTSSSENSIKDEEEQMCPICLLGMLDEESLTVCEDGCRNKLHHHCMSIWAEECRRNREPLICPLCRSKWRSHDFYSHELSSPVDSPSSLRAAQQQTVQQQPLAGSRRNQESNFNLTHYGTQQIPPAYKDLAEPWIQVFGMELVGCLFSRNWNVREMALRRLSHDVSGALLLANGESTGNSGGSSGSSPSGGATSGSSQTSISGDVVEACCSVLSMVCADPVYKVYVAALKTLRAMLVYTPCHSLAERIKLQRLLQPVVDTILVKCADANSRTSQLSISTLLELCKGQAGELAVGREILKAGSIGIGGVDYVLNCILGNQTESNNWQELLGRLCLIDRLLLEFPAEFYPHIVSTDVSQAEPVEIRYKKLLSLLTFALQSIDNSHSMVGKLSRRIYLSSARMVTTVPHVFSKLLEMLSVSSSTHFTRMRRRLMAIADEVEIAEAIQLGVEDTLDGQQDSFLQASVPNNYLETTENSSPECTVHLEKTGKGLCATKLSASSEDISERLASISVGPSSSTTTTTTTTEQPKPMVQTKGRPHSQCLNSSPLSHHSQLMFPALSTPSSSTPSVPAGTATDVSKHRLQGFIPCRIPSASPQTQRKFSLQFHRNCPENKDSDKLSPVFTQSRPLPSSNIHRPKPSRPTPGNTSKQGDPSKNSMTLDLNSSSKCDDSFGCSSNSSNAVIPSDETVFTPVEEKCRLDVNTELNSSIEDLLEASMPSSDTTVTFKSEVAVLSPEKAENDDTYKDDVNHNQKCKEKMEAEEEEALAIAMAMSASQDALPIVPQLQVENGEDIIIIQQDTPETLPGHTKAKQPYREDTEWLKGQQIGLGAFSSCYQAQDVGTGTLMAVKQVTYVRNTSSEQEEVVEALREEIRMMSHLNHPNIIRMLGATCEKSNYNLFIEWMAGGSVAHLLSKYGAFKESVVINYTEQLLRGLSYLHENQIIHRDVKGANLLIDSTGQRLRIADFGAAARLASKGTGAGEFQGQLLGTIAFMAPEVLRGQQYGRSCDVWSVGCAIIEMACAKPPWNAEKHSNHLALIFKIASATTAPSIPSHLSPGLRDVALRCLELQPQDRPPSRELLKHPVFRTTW
Chain of Homeodomain-interacting protein kinase 2 (Homo sapiens) (Q9H2X6 whole entry, looked up): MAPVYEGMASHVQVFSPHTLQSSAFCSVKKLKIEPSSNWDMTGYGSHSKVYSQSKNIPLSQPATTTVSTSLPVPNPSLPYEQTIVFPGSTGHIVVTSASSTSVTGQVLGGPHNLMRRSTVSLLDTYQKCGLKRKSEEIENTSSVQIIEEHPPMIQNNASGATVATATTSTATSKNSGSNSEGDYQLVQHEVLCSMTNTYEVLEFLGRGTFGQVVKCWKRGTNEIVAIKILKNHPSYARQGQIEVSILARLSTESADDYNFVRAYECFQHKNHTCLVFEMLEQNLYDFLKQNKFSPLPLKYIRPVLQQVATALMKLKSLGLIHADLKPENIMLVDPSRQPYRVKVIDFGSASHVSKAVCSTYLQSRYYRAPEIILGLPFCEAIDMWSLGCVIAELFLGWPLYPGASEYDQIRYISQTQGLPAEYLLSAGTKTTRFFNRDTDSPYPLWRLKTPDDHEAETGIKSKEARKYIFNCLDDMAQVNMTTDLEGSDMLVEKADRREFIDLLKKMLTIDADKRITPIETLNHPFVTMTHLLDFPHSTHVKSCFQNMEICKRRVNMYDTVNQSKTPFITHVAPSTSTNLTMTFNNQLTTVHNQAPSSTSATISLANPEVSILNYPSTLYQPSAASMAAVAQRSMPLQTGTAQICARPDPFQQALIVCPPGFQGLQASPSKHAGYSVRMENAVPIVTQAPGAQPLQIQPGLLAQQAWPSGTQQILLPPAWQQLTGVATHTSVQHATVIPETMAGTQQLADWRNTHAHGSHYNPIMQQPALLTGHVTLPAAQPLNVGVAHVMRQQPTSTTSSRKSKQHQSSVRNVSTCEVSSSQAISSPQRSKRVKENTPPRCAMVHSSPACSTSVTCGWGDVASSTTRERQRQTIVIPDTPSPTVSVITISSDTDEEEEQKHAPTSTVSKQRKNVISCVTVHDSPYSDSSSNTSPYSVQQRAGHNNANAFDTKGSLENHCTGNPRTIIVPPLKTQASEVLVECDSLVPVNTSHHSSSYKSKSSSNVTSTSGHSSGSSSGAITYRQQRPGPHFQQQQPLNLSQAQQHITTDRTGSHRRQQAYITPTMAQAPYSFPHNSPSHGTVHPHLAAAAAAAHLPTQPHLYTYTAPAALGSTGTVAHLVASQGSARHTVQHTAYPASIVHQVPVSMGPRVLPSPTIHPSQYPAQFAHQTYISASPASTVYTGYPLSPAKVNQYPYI

The inhibition is the change of the read-out against control, counted positive when it falls. With `COCCNC(=O)c1ccc2c(c1)nc(-c1cnc(-c3ccc(Cl)cc3)[nH]1)n2CCOC`, the inhibition in assay [1] is 3.62%; in assay [2], -3.24%; in assay [3], 5.07%; in assay [4] it was 16.4%; in assay [5] it was 7.17%; in assay [6], 10.5%. For the same molecule, the values for the inhibition in assay [7] and in assay [8] were -4.82% and 1.41%, respectively.

In the case of `CC(C)(C)c1cc(NC(=O)Nc2ccc(Oc3ccncc3)cc2)no1`, the inhibition in assay [1] turned out to be 5.71%; in assay [2] it was 25.2%; in assay [3], 10%; in assay [4], 10.7%; in assay [5], 7.33%; in assay [6], 55.9%. Further, the results for the inhibition in assay [7] and in assay [8] were 18.1% and 3.03%, respectively.

In the case of `CS(=O)(=O)c1cccc(Nc2nccc(-c3sc(N4CCOCC4)nc3-c3cccc(NS(=O)(=O)c4c(F)cccc4F)c3)n2)c1`, the inhibition in assay [1] was 52.4%; in assay [2], -3%; in assay [3], 3.98%; in assay [4] it was 4.28%; in assay [5] it was 13.6%; in assay [6], 8.44%. Moreover, the inhibition is 91.4% in assay [7] and -3.91% in assay [8].
